How the values were obtained:
[1] = test system: Con1 replicon cells; assay: 8-OHG oxidative RNA damage in SgPC2 Con1 replicon cells (ELISA); format: cell-based, human; conditions: for 8-OH-G in Con1 replicon (SgPC2) cells, daily treatment for 2 weeks: 0.1% ethanol, 5 μM acetaldehyde; for 8-OH-G in Con1 replicon (SgPC2) cells, daily treatment for 2 weeks / fold increase in 8-OHG content over the control: 20 μM BSO; for 8-OH-G in SgPC2 cells within 2 days: 0.5% ethanol, BSO; for fold increase in 8-OHG content over the control: 48 hrs, 0.5% (v/v) ethanol, 250 μM NiCl2 daily
Method: Total RNA was isolated using Trizol (Invitrogen) and analyzed for 8-OH-guanosine (8-OH-G) by northwestern, as described (Shan X et al. (2003) J. Neurosci. 23:4913-4921). Briefly, RNA was size-fractionated by agarose gel electrophoresis, transferred to a nylon membrane, blocked with 1% BSA, incubated sequentially with monoclonal anti-8-OH-G/dG antibodies (QED Bioscience, Inc.) and then with goat anti-mouse HRP-conjugated secondary antibody (Santa Cruz Biotechnology), and signals were detected, using an ECL kit (Amersham). In addition, RNA was digested with nuclease P1 (Sigma, US Biological) and alkaline phosphatase (Promega) and analyzed for 8-OH-G content using RNA Damage Kit (Cell Biolabs, Inc.), following manufacturer's protocols.
(§1) Total RNA was isolated using Trizol (Invitrogen) and analyzed for 8-OHG by ELISA. Briefly, RNA was incubated with 10 U DNase I (GE Healthcare), 10 U nuclease P1 (Sigma or US Biological), and 10 U alkaline phosphatase (Promega) and analyzed for 8-OHG content with RNA Damage Kit (Cell Biolabs, Inc.) and 8-OHG standards, following manufacturer's protocols.

[2] = test system: Huh7 cells transfected with JFH1 RNA; assay: 8-OHG oxidative RNA damage in Huh7 cells transfected with JFH1 RNA (ELISA); format: cell-based, human; conditions: 48 hr (0.5% ethanol, 20 μM BSO) and 2 weeks (0.1% ethanol, 20 μM BSO)
Method: as §1
HCV induces severe oxidative/nitrosative stress in the host by increasing the generation of reactive species. Thus, JFH1 strain of genotype 2a that supports complete replication cycle of HCV and produces infectious HCV in cell culture was used next to determine whether HCV was sufficient to induce oxidative RNA damage even in the absence of ethanol and BSO. Huh7 cells were transfected with JFH1 RNA and either exposed to 0.5% ethanol (v/v) or 20 μM BSO daily for 48 hrs, or to 0.1% ethanol (v/v) or 20 μM BSO with and without 5 μM dipyridyl or 1 mM GSH ester daily with a change of medium prior to each treatment for 2 weeks.

[3] = test system: subgenomic HCV replicon of genotype 1b (Con1), NS5A region; assay: NS5A sequencing of HCV RNA, mutation frequency in SgPC2 Con1 replicon cells (Example 1); format: cell-based, Hepatitis C virus; conditions: for dn/ds ratio: control 0.33; for Percentage of sites showing positive selection: control 2.36; for mutation frequency, nucleotide changes per site / amino acid changes per codon: SgPC2 Con1 replicon cells, once daily for 48 hrs, ethanol 0.5%; for mutation frequency, nucleotide changes per site: normalized by T7 baseline
Method: Huh7 cell clones (SgPC2 cells) supporting continuous replication of a subgenomic HCV replicon of genotype 1b (Con1 sequence) were used (Choi J. et al. (2004) Hepatology 39:81-89; Blight K J et al. (2000) Science 290:1972). The subgenomic replicons support HCV RNA replication but no virus is formed. The in vitro transcription, transfection of HCV RNA, and Huh7 human hepatoma cell culture were performed by methods known in the art and as previously described (Choi J. et al. (2004) Hepatology 39:81-89; Blight K J et al. (2000) Science 290:1972).
After various treatments, total RNAs were collected using Trizol (Invitrogen). Then, the NS5A region (nt. 4612 to 6013 of Con1 replicon) was reverse transcribed/amplified with AccuScript High Fidelity RT-PCR System (Stratagene). The cDNAs were cloned into pUC19 and sequenced at the Joint Genome Institute (Livermore, Calif.). Sequences were aligned against Con1(S11791) sequence, using BioEdit/MEGA 4.0 Molecular Evolutionary Genetics Analysis software.
To test whether ethanol can increase the mutation rate of HCV, SgPC2 Con1 replicon cells that support genotype 1b subgenomic HCV RNA replication (FIG. 2B) were incubated with ethanol (0.5%), BSO (amplifies the effects of endogenous ROS/RNS by decreasing the level of glutathione in the cell), H2O2 (100 μM), or acetaldehyde (10 μM) once daily for 48 hrs. Then, the RNAs were collected, and the NS5A region (nt. 4612 to 6013 of Con1 replicon) was reverse transcribed/amplified with AccuScript High Fidelity RT-PCR System (Stratagene). Then, the cDNAs were cloned into pUC19 and sequenced at the Joint Genome Institute (Livermore, Calif.). T7 HCV RNA transcript, initially used to transfect the Con1 cells, was also sequenced to assess the basal level of RNA heterogeneity, such as due to any heterogeneity of the DNA template prior to in vitro transcription as well as any errors generated during transcription and RT-PCR cloning. The experiments were focused on NS5A because of its moderate level of diversity and its role in viral replication as well as interferon resistance. Sequences were aligned against Con1(S1179I) sequence, using BioEdit/MEGA 4.0 Molecular Evolutionary Genetics Analysis software.

SMILES: CCCCS(=N)(=O)CCC(N)C(=O)O [BSO, L-buthionine-S,R-sulfoximine]
- 8-OH-G in Con1 replicon (SgPC2) cells, daily treatment for 2 weeks [1]: significant increases
- 8-OH-G in SgPC2 cells within 2 days [1]: increased
- fold increase in 8-OHG content over the control [1]: 23.4±1.5 fold
- 8-OHG increased by HCV (JFH1) [2]: exacerbated
- amino acid changes, fold higher than the control group ([3]; 48 hrs): ~12 fold
- nucleotide changes, fold higher than the control group ([3]; 48 hrs): about 4 fold
- dn/ds ratio ([3]; 48 hrs): 0.59
- Percentage of sites showing positive selection ([3]; 48 hrs): 6.42%
- mutation frequency, nucleotide changes per site [3]: 6.74×10^−4 nucleotide changes per site
- amino acid changes per codon [3]: 1.67×10^−3 amino acid changes per codon

SMILES: CCO [Ethanol, ethanol]
- 8-OH-G in Con1 replicon (SgPC2) cells, daily treatment for 2 weeks [1]: significant increases
- 8-OH-G in SgPC2 cells within 2 days [1]: increased
- fold increase in 8-OHG content over the control [1]: 34.9±1.2 fold
- 8-OHG increased by HCV (JFH1) [2]: exacerbated
- amino acid changes, fold higher than the control group ([3]; 48 hrs): ~24 fold
- nucleotide changes, fold higher than the control group ([3]; 48 hrs): ~8 fold
- dn/ds ratio ([3]; 48 hrs): 0.76
- Percentage of sites showing positive selection ([3]; 48 hrs): 5.14%
- Ts/Tv ratio ([3]; 48 hrs, control approximately 2.7): 5.7
- location of synonymous and nonsynonymous mutations in NS5A ([3]; SNAP plot against codons, 48 hrs): clustered in the C-terminal half of NS5A
- mutation frequency, nucleotide changes per site [3]: 1.33×10^−3 nucleotide changes per site
- amino acid changes per codon [3]: 3.05×10^−3 amino acid changes per codon

— patent US20110206638A1, “COMPOSITIONS AND METHODS FOR REDUCING THE MUTATION RATE OF VIRUSES” (priority 2010, published 2011)
